Assay results taken from ChEMBL document CHEMBL3763135, “Synthesis and evaluation of thiophene-based guanylhydrazones (iminoguanidines) efficient against panel of voriconazole-resistant fungal isolates” (Bioorg Med Chem, 2016).
The source made the active and inactive calls. The calls are words filed in the database; no cut-off is given here.

What was measured:
[1] = Selectivity index, ratio of IC50 for human MRC5 cell to MIC for Candida albicans ATCC 10231
Candida albicans [2] = assay: Induction of cell death in Candida albicans CA5 at MIC measured after 2 hrs by concavaline-FITC/PI/DAPI-staining based fluorescence microscopic analysis relative to DMSO control; assay type: functional
[3] = Hemolytic effect in sheep RBC assessed as release of hemoglobin at 10 ug/ml after 1 hr; assay type: ADME, cell-based, Ovis aries, Erythrocyte; conditions: sheep red blood cells, read-out: Activity
[4] = Induction of membrane damage in PC/PS liposome assessed as calcein release at MIC after 30 mins by fluorescence-based liposome leakage assay; assay type: functional
Danio rerio [5] = assay: Toxicity against zebrafish embryo assessed as yolk edema at 50 ug/ml measured at 96 hrs post fertilization by inverted microscopic analysis; assay type: organism-based; conditions: in vivo
Candida albicans [6] = assay: Fungistatic activity against Candida albicans CA5 at sub-MIC measured after 12 hrs by time-kill dependence-based spectrophotometric analysis; assay type: functional, organism-based
Danio rerio [7] = organism: Danio rerio; assay: Toxicity against zebrafish embryo assessed as effect on tail tip at 50 ug/ml measured at 96 hrs post fertilization by inverted microscopic analysis; assay type: organism-based; conditions: in vivo
Danio rerio [8] = organism: Danio rerio; assay: Toxicity against zebrafish embryo assessed as effect on otoliths at 50 ug/ml measured at 96 hrs post fertilization by inverted microscopic analysis; assay type: organism-based; conditions: in vivo
Danio rerio [9] = organism: Danio rerio; assay: Toxicity against zebrafish embryo assessed as unhatched embryos at 50 ug/ml measured at 96 hrs post fertilization by inverted microscopic analysis; assay type: organism-based; conditions: in vivo
Danio rerio [10] = organism: Danio rerio; assay: Toxicity against zebrafish embryo assessed as effect on notochord at 50 ug/ml measured at 96 hrs post fertilization by inverted microscopic analysis; assay type: organism-based; conditions: in vivo
Danio rerio [11] = organism: Danio rerio; assay: Toxicity against zebrafish embryo assessed as skeletal deformities at 50 ug/ml measured at 96 hrs post fertilization by inverted microscopic analysis; assay type: organism-based; conditions: in vivo
Danio rerio [12] = organism: Danio rerio; assay: Toxicity against zebrafish embryo assessed as effect on heart beat at 50 ug/ml measured at 96 hrs post fertilization by inverted microscopic analysis; assay type: organism-based; conditions: in vivo
Danio rerio [13] = organism: Danio rerio; assay: Toxicity against zebrafish embryo assessed as head malformation at 50 ug/ml measured at 96 hrs post fertilization by inverted microscopic analysis; assay type: organism-based; conditions: in vivo
Danio rerio [14] = organism: Danio rerio; assay: Toxicity against zebrafish embryo assessed as effect on eyes at 50 ug/ml measured at 96 hrs post fertilization by inverted microscopic analysis; assay type: organism-based; conditions: in vivo
Danio rerio [15] = assay: Toxicity against zebrafish embryo assessed as pericardial edema at 50 ug/ml measured at 96 hrs post fertilization by inverted microscopic analysis; assay type: organism-based; conditions: in vivo

| Compound | Selectivity Index [1] | Activity (Candida albicans [2]) | hemolysis at 1 h, 10 ug/ml [3] [%] | Activity [4] [%] | Activity (Danio rerio [5]) [%] | Activity (Candida albicans [6]) | Activity (Danio rerio [7]) [%] | Activity (Danio rerio [8]) [%] | Activity (Danio rerio [9]) [%] | Activity (Danio rerio [10]) [%] | Activity (Danio rerio [11]) [%] | Activity (Danio rerio [12]) [%] | Activity (Danio rerio [13]) [%] | Activity (Danio rerio [14]) [%] | Activity (Danio rerio [15]) [%] |
| --- | --- | --- | --- | --- | --- | --- | --- | --- | --- | --- | --- | --- | --- | --- | --- |
| Cc1ccc(-c2ccc(/C=N/NC(=N)N)s2)cc1.Cl | 2.7 | inactive | – | – | – | – | – | – | – | – | – | – | – | – | – |
| Cl.Cl.N=C(N)N/N=C/c1ccc(-c2ccc(/C=N/NC(=N)N)s2)cc1 | – | – | 20 | 8 | 0 | Active | 0 | 0 | 0 | 0 | 0 | 0 | 0 | 0 | 0 |
